Literature values as cited in patent US20160374909A9, “Treating Cariogenic diseased oral biofilm with elevated pH” (Dental Alliance Holdings, LLC dba Oral Bio Tech, priority 2006, published 2016).

What was measured:
[1] = system: Mutans streptococci; settings: rinse or varnish
[2] = system: Lactobacilli; settings: rinse or varnish

With [H]/N=C(\N/C(=N/[H])NCCCCCCNC(=N)NC(=N)Nc1ccc(Cl)cc1)Nc1ccc(Cl)cc1 [chlorhexidine] as the compound, how does the “effect against Mutans streptococci” value [1] read?
The value was “effective”.

What about the “effect against Lactobacilli” value [2] of the same compound?
The value was “no effect”.
